According to patent publication US4113957A, “1-Substituted pyrazoles” (Bayer Aktiengesellschaft, priority 1975, dated 1978):

Test system: venous thrombs (left jugular vein)
Experiment: Antithrombotic action: thromb formation in supercooled jugular vein of rats
Format: in vivo
Settings: Rattus norvegicus, po, 10 mg/kg orally, reduction of thromb size vs control, after 4 hours
Protocol: The left jugular vein of rats weighing 170 to 180 g was exposed under ether narcosis and supercooled to -12° C. for 2 minutes to stimulate thromb formation. The thromb was isolated from the vein 4 hours later, and was weighed. The test animals were given the test preparation in tragacanth mucilage immediately before supercooling the wall of the blood vessel. As a result, the protective antithrombotic activity was tested in the first 4 hours after stimulating thromb formation.

Cc1cc(OC(=O)c2ccco2)n(CCOc2ccc3ccccc3c2)n1 [Example 20, 5-(Furyl-(2)-carbonyloxy)-3-methyl-1-(2-(β-naphthyloxy)-ethyl)-pyrazole]
inhibition at 10 mg/kg: 61%
